“And” between values parts separate entries of the source, which are not always exact repeats. Equal entries are not always repeated.
Experiments:
Assay in all cases: Pull-down with immobilized probes and quantitative mass spectrometry
Type in all cases: binding, H. sapiens
[1] = molecular target: T1, OCI-AML5 total protein extracts (cyclin K, CDKs, DDB1) (Homo sapiens, UniProt Q9NYV4); conditions: OCI-AML5 total protein extracts; DEP analysis
T1 construct: endogenous in cells; host or cells: OCI-AML5 total protein extract
Method: (§1) Probe compounds were immobilized through their terminal amine on NHS-sepharose beads as previously described (Médard et al, [2015]). The prepared beads were then washed in PBS and equilibrated in Triton X-100 buffer. For each replicate, 1–2 mg of total proteins (2 mg/ml) were incubated end-over-end with 25 μl of beads overnight at 4 °C in low protein binding microtubes (Sarstedt). The samples were then washed twice in Triton X-100 buffer, transferred to new microtubes and further washed six times in PBS including another microtube transfer at the last wash. Beads pellets were resuspended in 50 mM ammonium bicarbonate and subjected to reduction, alkylation and tryptic digest as described above. Peptides were separated on an home-made reversed-phase column (150-μm i.d. by 200 mm) with a 56-min gradient from 10 to 30% ACN-0.2% FA and a 600-nl/min flow rate on a Easy nLC-1200 connected to a Exploris 480 (ThermoFisher Scientific, San Jose, CA). Each full MS spectrum acquired at a resolution of 120,000 was followed by tandem-MS (MS-MS) spectra acquisition on the most abundant multiply charged precursor ions for 3 s. Tandem-MS experiments were performed using higher energy collision dissociation (HCD) at a collision energy of 34%. The data were processed using PEAKS X Pro (Bioinformatics Solutions, Waterloo, ON) and a Uniprot human database (20366 entries). Mass tolerances on precursor and fragment ions were 10 ppm and 0.01 Da, respectively. Fixed modification was carbamidomethyl (C). Variable selected posttranslational modifications were acetylation (N-ter), oxidation (M), deamidation (NQ), phosphorylation (STY). The data were visualized with Scaffold 5.0 (protein threshold, 99%, with at least 2 peptides identified and a false-discovery rate [FDR] of 1% for peptides).
(§2) Differential Enrichment analysis of Proteomics data (DEP) package (Zhang et al, [2018]) in R was used to analyze the data (excluding proteins identified based on a single peptide), including data filtering, normalization, imputation of missing values and statistical testing of differentially expressed proteins.

[2] = molecular target: T2, OCI-AML5 total protein extracts (cyclin K, CDKs, DDB1) (Homo sapiens, UniProt P06493); conditions: OCI-AML5 total protein extracts; DEP analysis
T2 construct: endogenous in cells; host or cells: OCI-AML5 total protein extract
Method: as §1, §2

[3] = molecular target: T3, OCI-AML5 total protein extracts (cyclin K, CDKs, DDB1) (Homo sapiens, UniProt Q6UXT9); conditions: protein ABHD15 (Q6UXT9)
T3 construct: endogenous in cells; host or cells: OCI-AML5 total protein extract
T3 sequence (Q6UXT9 24-468): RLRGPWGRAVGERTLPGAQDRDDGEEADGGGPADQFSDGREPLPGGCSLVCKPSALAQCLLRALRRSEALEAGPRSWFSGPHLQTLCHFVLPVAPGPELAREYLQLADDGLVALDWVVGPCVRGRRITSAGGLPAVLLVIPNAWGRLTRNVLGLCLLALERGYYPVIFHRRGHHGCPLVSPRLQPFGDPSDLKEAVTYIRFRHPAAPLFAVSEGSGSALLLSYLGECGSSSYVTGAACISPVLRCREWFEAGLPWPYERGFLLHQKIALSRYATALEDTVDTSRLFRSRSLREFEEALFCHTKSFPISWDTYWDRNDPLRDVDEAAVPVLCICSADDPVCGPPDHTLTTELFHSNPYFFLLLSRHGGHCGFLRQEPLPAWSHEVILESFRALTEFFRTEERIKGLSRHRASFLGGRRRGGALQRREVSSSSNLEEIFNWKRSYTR
Method: as §1, §2

[4] = molecular target: T4, OCI-AML5 total protein extracts (cyclin K, CDKs, DDB1) (Homo sapiens, UniProt P50750); conditions: OCI-AML5 total protein extracts; DEP analysis
T4 construct: endogenous in cells; host or cells: OCI-AML5 total protein extract
Method: as §1, §2

[5] = molecular target: T5, OCI-AML5 total protein extracts (cyclin K, CDKs, DDB1) (Homo sapiens, UniProt Q16531); conditions: OCI-AML5 total protein extracts
T5 construct: endogenous in cells; host or cells: OCI-AML5 total protein extract
Method: as §1, §2

[6] = molecular target: T6, OCI-AML5 total protein extracts (cyclin K, CDKs, DDB1) (Homo sapiens, UniProt Q86UQ4); conditions: protein ABCA13 (Q86UQ4)
T6 construct: endogenous in cells; host or cells: OCI-AML5 total protein extract
Method: as §1, §2

[7] = molecular target: T7, OCI-AML5 total protein extracts (cyclin K, CDKs, DDB1) (Homo sapiens, UniProt P21439); conditions: protein ABCB4 (P21439)
T7 construct: endogenous in cells; host or cells: OCI-AML5 total protein extract
Method: as §1, §2

[8] = molecular target: T8, OCI-AML5 total protein extracts (cyclin K, CDKs, DDB1) (Homo sapiens, UniProt Q96IU4); conditions: protein ABHD14B (Q96IU4)
T8 construct: endogenous in cells; host or cells: OCI-AML5 total protein extract
T8 sequence (Q96IU4 1-210): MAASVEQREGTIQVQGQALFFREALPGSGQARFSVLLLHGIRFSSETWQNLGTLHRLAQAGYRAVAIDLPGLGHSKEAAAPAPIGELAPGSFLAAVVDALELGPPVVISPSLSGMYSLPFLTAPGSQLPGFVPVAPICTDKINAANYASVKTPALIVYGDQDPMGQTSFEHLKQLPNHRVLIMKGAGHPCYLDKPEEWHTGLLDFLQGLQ
Method: as §1, §2

[9] = molecular target: T9, OCI-AML5 total protein extracts (cyclin K, CDKs, DDB1) (Homo sapiens, UniProt O75909); conditions: OCI-AML5 total protein extracts; DEP analysis
T9 construct: endogenous in cells; host or cells: OCI-AML5 total protein extract
Method: as §1, §2

[10] = molecular target: T10, OCI-AML5 total protein extracts (cyclin K, CDKs, DDB1) (Homo sapiens, UniProt P45844); conditions: protein ABCG1 (P45844)
T10 construct: endogenous in cells; host or cells: OCI-AML5 total protein extract
Method: as §1, §2

[11] = centered abundance, competition (compe)
[12] = probe vs probe with competition
[13] = probe with competition (compe) vs UOM-005839
[14] = probe with competition (compe) vs beads

T4 sequence (P50750 whole entry): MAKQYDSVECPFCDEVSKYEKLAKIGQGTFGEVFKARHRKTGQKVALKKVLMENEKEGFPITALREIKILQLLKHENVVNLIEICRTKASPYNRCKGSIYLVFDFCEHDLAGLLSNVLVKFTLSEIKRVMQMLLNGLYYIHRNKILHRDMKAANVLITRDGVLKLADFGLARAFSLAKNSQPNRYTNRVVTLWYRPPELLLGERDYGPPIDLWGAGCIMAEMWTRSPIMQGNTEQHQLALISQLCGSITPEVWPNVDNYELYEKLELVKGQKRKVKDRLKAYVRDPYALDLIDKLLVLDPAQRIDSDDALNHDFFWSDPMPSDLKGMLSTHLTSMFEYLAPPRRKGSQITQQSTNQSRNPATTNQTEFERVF
T7 sequence (P21439 whole entry): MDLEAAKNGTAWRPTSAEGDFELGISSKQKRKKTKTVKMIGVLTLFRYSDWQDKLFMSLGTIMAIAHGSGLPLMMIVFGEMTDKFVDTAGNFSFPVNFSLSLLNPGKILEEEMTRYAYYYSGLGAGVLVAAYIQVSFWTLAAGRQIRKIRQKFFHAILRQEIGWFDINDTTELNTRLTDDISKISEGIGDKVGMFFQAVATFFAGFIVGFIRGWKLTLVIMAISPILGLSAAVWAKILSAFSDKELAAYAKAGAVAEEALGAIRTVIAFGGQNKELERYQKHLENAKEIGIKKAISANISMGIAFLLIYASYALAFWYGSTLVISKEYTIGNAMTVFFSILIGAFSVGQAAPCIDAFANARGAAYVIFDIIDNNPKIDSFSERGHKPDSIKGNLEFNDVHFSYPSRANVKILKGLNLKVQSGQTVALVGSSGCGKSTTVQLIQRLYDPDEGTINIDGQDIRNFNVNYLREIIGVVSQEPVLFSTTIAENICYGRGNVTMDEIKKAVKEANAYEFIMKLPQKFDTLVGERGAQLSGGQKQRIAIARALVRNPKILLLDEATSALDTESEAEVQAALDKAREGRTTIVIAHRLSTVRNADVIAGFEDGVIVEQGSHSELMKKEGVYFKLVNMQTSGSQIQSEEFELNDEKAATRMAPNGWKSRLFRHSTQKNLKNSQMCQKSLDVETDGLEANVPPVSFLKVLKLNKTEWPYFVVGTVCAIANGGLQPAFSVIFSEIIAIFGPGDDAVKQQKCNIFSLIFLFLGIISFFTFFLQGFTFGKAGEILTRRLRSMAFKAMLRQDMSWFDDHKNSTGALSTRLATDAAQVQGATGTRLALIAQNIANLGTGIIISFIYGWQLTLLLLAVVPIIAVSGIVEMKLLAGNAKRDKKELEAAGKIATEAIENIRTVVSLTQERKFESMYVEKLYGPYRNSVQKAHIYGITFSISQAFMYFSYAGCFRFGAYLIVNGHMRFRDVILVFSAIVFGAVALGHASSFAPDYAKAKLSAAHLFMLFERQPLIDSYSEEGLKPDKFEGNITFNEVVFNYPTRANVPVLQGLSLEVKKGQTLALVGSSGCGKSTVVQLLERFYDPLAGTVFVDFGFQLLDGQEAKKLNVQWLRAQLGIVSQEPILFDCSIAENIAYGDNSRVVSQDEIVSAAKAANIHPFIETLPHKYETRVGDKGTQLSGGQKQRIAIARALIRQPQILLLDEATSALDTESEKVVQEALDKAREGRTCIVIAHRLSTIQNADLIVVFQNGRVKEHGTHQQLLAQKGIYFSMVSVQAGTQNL
T1 sequence (Q9NYV4 whole entry): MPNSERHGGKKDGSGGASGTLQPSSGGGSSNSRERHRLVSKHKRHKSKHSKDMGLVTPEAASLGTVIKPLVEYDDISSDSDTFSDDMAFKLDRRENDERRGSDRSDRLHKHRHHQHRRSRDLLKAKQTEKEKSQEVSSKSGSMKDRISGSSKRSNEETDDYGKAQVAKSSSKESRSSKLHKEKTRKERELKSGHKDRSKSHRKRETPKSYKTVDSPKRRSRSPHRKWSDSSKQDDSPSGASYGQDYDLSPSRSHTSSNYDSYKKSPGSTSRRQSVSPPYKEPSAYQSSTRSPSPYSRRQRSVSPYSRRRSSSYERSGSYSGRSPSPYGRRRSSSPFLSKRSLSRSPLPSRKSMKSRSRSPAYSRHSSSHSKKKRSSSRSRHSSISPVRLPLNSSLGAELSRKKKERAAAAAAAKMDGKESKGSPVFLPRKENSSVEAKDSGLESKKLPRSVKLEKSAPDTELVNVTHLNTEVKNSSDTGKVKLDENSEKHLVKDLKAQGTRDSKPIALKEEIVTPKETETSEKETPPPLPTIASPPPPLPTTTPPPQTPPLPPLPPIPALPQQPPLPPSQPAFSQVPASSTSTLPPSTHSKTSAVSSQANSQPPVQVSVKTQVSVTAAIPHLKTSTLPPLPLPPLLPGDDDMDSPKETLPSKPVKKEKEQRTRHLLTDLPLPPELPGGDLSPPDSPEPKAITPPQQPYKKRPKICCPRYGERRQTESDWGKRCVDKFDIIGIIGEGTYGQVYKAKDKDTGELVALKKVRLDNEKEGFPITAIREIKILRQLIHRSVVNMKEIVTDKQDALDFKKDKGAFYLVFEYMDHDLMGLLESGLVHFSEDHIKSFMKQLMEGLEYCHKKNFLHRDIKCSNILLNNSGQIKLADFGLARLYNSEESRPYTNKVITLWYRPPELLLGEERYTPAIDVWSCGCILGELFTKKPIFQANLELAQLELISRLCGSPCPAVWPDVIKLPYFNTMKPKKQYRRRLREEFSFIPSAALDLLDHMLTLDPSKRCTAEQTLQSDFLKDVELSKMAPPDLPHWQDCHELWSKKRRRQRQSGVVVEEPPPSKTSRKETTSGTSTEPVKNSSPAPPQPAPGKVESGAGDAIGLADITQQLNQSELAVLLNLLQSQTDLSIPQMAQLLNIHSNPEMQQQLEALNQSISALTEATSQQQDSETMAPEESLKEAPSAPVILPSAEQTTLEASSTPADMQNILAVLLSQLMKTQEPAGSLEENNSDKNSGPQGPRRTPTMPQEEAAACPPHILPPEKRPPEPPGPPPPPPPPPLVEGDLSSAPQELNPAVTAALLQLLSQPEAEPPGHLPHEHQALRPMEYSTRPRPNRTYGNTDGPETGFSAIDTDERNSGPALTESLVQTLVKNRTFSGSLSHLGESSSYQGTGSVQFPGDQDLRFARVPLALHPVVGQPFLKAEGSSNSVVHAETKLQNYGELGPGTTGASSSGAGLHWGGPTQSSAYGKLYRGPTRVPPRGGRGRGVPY
T2 sequence (P06493 whole entry): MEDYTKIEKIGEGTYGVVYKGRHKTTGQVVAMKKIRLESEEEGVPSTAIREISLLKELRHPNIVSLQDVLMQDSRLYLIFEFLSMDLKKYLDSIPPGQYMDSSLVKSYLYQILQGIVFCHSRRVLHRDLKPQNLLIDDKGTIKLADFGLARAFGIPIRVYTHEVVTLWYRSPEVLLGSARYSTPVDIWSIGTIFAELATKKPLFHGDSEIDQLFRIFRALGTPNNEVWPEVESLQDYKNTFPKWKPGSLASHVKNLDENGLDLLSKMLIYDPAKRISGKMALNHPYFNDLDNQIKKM
T9 sequence (O75909 whole entry): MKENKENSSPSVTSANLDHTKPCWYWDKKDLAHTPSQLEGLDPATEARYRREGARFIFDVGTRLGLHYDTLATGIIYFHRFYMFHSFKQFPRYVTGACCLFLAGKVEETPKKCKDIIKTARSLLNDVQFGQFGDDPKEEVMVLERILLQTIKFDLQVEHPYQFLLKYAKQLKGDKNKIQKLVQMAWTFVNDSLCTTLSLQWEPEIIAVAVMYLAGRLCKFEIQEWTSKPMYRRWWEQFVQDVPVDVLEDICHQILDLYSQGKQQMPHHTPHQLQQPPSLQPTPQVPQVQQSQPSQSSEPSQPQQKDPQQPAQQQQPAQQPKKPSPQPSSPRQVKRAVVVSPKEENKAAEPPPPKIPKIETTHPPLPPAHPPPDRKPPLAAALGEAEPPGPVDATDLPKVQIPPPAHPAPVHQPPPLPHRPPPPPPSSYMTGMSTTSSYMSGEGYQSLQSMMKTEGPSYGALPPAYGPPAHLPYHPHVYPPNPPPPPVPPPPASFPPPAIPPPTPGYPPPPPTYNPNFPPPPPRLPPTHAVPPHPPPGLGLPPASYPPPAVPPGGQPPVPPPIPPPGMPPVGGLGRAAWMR

`CN(CCOCCOCCN)c1ccc(CC(=O)Nc2ncc(SCc3cccnc3)s2)cc1` [UOM-005790] was tested, and the “pull-down enrichment of CDK12” value [1] was 0.5953 and 0.6765 and 0.5336, the “pull-down enrichment of CDK1” value [2] was 2.811 and 2.814 and 2.979 and the UOM-005790_centered ([3]; centered abundance) was 1.53. The UOM-005790compe_centered [3, 11] was 1.26, the UOM-005790_vs_Beads_ratio ([3]; immobilized probe vs beads) was 5.2 and the UOM-005790_vs_UOM-005839_ratio ([3]; probe vs probe UOM-005839) was 0.645. For the same compound, the UOM-005790_vs_UOM-005790compe_ratio [3, 12] was 0.275, the UOM-005790compe_vs_UOM-005839_ratio [3, 13] was 0.37 and the UOM-005790compe_vs_Beads_ratio [3, 14] was 4.93. The “pull-down enrichment of CDK9” value [4] was 2.785 and 2.837 and 2.887, the “pull-down enrichment of DDB1” value [5] was “not enriched” and the UOM-005790_centered ([6]; centered abundance) was 0.56. For the same compound, the UOM-005790compe_centered [6, 11] was -0.869, the UOM-005790_vs_Beads_ratio ([6]; immobilized probe vs beads) was 0.378 and the UOM-005790_vs_UOM-005839_ratio ([6]; probe vs probe UOM-005839) was 0.434. It also gave a UOM-005790_vs_UOM-005790compe_ratio [6, 12] of 1.43, a UOM-005790compe_vs_UOM-005839_ratio [6, 13] of -0.995 and a UOM-005790compe_vs_Beads_ratio [6, 14] of -1.05. It also gave a UOM-005790_centered ([7]; centered abundance) of -2.58, a UOM-005790compe_centered [7, 11] of -1.22 and a UOM-005790_vs_Beads_ratio ([7]; immobilized probe vs beads) of -5.48. The UOM-005790_vs_UOM-005839_ratio ([7]; probe vs probe UOM-005839) was -3.49, the UOM-005790_vs_UOM-005790compe_ratio [7, 12] was -1.36 and the UOM-005790compe_vs_UOM-005839_ratio [7, 13] was -2.12. The UOM-005790compe_vs_Beads_ratio [7, 14] was -4.12, the UOM-005790_centered ([8]; centered abundance) was 1.19 and the UOM-005790compe_centered [8, 11] was 1.42. The UOM-005790_vs_Beads_ratio ([8]; immobilized probe vs beads) was 4.31, the UOM-005790_vs_UOM-005839_ratio ([8]; probe vs probe UOM-005839) was 0.69 and the UOM-005790_vs_UOM-005790compe_ratio [8, 12] was -0.227. For the same compound, the UOM-005790compe_vs_UOM-005839_ratio [8, 13] was 0.916, the UOM-005790compe_vs_Beads_ratio [8, 14] was 4.54 and the “pull-down enrichment of Cyclin K” value [9] was 2.779 and 2.982 and 2.894. For the same compound, the UOM-005790_centered ([10]; centered abundance) was 2.21, the UOM-005790compe_centered [10, 11] was 1.7 and the UOM-005790_vs_Beads_ratio ([10]; immobilized probe vs beads) was 4.82. For the same compound, the UOM-005790_vs_UOM-005839_ratio ([10]; probe vs probe UOM-005839) was 3.51, the UOM-005790_vs_UOM-005790compe_ratio [10, 12] was 0.512 and the UOM-005790compe_vs_UOM-005839_ratio [10, 13] was 3. For the same compound, the UOM-005790compe_vs_Beads_ratio [10, 14] was 4.31.

Reference: PMC12152147, “DDB1 engagement defines the selectivity of S656 analogs for cyclin K degradation over CDK inhibition” (EMBO Reports, 2025)
